Measurements published in patent publication US9149462B2, “Pyrazole compounds acting against allergic, inflammatory and immune disorders” (Glaxo Group Limited, priority 2010, dated 2015).

How the values were obtained:
Assay type in all cases: in vitro ADME
[1] = In vitro microsomal clearance, rat (CD)
[2] = In vitro microsomal clearance, dog (Beagle)
[3] = In vitro microsomal clearance, rat (Wistar Han)
[4] = In vitro microsomal clearance, human

| SMILES | Clint [1] | Clint [2] | Clint [3] | Clint [4] |
| --- | --- | --- | --- | --- |
| O=C(Nc1cnn(Cc2c(F)cccc2C(F)(F)F)c1)c1c(F)cccc1F [Example 6, 2,6-Difluoro-N-(1-{[2-fluoro-6-(trifluoromethyl)phenyl]methyl}-1H-pyrazol-4-yl)benzamide] | 1.67 mL/min g liver | 0.98 mL/min g liver | 2.05 mL/min g liver | 0.80 mL/min g liver |
| [2H]C([2H])(c1c(F)cccc1C(F)(F)F)n1cc(NC(=O)c2c(F)cccc2F)cn1 [Example 29, 2,6-Difluoro-N-(1-(2-fluoro-6-(trifluoromethyl)-d2-benzyl)-1H-pyrazol-4-yl)benzamide] | 0.95 mL/min g liver | 0.80 mL/min g liver | 1.16 mL/min g liver | <0.5 mL/min g liver |
